# How the values were obtained:
# P. aeruginosa PAO1, WT = assay: MIC, Sensititre custom plate; type: cell-based; details: Pseudomonas aeruginosa, PAO1, read-out: MIC, Sensititre
# Experimental: (§1) Selection of resistant mutants was performed for minocycline with and without RW01 in three independent replicates for wild-type P. aeruginosa reference strain PAO1. Tubes containing Mueller-Hinton broth (MHB) were inoculated and incubated for 24 h at 37°C. Afterward, 1/100 dilution of each tube was incubated at 37°C in MHB to late-exponential growth phase, measured by spectrophotometry at OD600. […] A control plate without antibiotic was included as inoculum control. After overnight incubation, colony counting of each treatment was performed to analyze the generation of resistant population. The mutant prevention concentration (MPC) was defined as the lowest concentration of antibiotic yielding no growth of resistant mutants. Selected mutants were checked for susceptibility profiles by using a Sensititre custom plate (Thermo Fisher Scientific, Massachusetts, USA) for Gram-negative bacteria, following the manufacturer’s instructions.
# [1] = system: PAO1 mutant MIN16_1, nalD(T43P); assay: MIC, Sensititre custom plate; type: cell-based; details: Pseudomonas aeruginosa, PAO1, read-out: MIC, Sensititre
# Experimental: as §1
# [2] = system: PAO1 mutant MIN16_2, nalC(aa9∆4), pilQ(nt46∆1); assay: MIC, Sensititre custom plate; type: cell-based; details: Pseudomonas aeruginosa, PAO1, read-out: MIC, Sensititre
# Experimental: as §1
# [3] = system: PAO1 mutant MIN16_3, nfxB(nt79∆14), pilB(N349K); assay: MIC, Sensititre custom plate; type: cell-based; details: Pseudomonas aeruginosa, PAO1, read-out: MIC, Sensititre
# Experimental: as §1
# [4] = system: PAO1 mutant MIN16_4, nalC(T50P), pilM(Q62X); assay: MIC, Sensititre custom plate; type: cell-based; details: Pseudomonas aeruginosa, PAO1, read-out: MIC, Sensititre
# Experimental: as §1
# [5] = system: PAO1 mutant MIN1_RW01_1, pmrB(Y98N); assay: MIC, Sensititre custom plate; type: cell-based; details: Pseudomonas aeruginosa, PAO1, read-out: MIC, Sensititre
# Experimental: as §1
# [6] = system: PAO1 mutant MIN1_RW01_2, mexR(G58E), pilB(G326D), hutC(Y181X); assay: MIC, Sensititre custom plate; type: cell-based; details: Pseudomonas aeruginosa, PAO1, read-out: MIC, Sensititre
# Experimental: as §1
# [7] = system: PAO1 mutant MIN1_RW01_3, pmrB(V215L); assay: MIC, Sensititre custom plate; type: cell-based; details: Pseudomonas aeruginosa, PAO1, read-out: MIC, Sensititre
# Experimental: as §1
# [8] = system: PAO1 mutant MIN2_RW01_1, pmrB(V215L); assay: MIC, Sensititre custom plate; type: cell-based; details: Pseudomonas aeruginosa, PAO1, read-out: MIC, Sensititre
# Experimental: as §1
# [9] = system: PAO1 mutant MIN2_RW01_2, pmrB(M292T); assay: MIC, Sensititre custom plate; type: cell-based; details: Pseudomonas aeruginosa, PAO1, read-out: MIC, Sensititre
# Experimental: as §1
# [10] = system: PAO1 mutant MIN2_RW01_3, parS(V152A); assay: MIC, Sensititre custom plate; type: cell-based; details: Pseudomonas aeruginosa, PAO1, read-out: MIC, Sensititre
# Experimental: as §1
# [11] = system: PAO1 mutant MIN2_RW01_4, pmrB(M292T); assay: MIC, Sensititre custom plate; type: cell-based; details: Pseudomonas aeruginosa, PAO1, read-out: MIC, Sensititre
# Experimental: as §1
# [12] = system: PAO1 mutant MIN32_1, mexR(R63H), pilB(N349K), PA0646(V316G); assay: MIC, Sensititre custom plate; type: cell-based; details: Pseudomonas aeruginosa, PAO1, read-out: MIC, Sensititre
# Experimental: as §1
# [13] = system: PAO1 mutant MIN4_RW01_1, pmrB(R429H); assay: MIC, Sensititre custom plate; type: cell-based; details: Pseudomonas aeruginosa, PAO1, read-out: MIC, Sensititre
# Experimental: as §1
# [14] = system: PAO1 mutant MIN4_RW01_3, pmrB(M292T); assay: MIC, Sensititre custom plate; type: cell-based; details: Pseudomonas aeruginosa, PAO1, read-out: MIC, Sensititre
# Experimental: as §1
# [15] = system: PAO1 mutant MIN4_RW01_4, pmrB(Y98N); assay: MIC, Sensititre custom plate; type: cell-based; details: Pseudomonas aeruginosa, PAO1, read-out: MIC, Sensititre
# Experimental: as §1
# [16] = system: PAO1 mutant MIN8_1, nalD(R3C), pilM(Q62X); assay: MIC, Sensititre custom plate; type: cell-based; details: Pseudomonas aeruginosa, PAO1, read-out: MIC, Sensititre
# Experimental: as §1
# [17] = system: PAO1 mutant MIN8_2, pilZ(nt18InsT); assay: MIC, Sensititre custom plate; type: cell-based; details: Pseudomonas aeruginosa, PAO1, read-out: MIC, Sensititre
# Experimental: as §1
# [18] = system: PAO1 mutant MIN8_3, pilZ(nt18InsT); assay: MIC, Sensititre custom plate; type: cell-based; details: Pseudomonas aeruginosa, PAO1, read-out: MIC, Sensititre
# Experimental: as §1
# [19] = system: PAO1 mutant MIN8_4, pilZ(nt18InsT); assay: MIC, Sensititre custom plate; type: cell-based; details: Pseudomonas aeruginosa, PAO1, read-out: MIC, Sensititre
# Experimental: as §1
# [20] = system: PAO1 mutant MIN1_RW01_4, pmrB(F124L); assay: microbe, parasite or virus in culture; type: cell-based; details: Pseudomonas aeruginosa, PAO1, read-out: MIC, Sensititre
# Experimental: as §1
# [21] = system: PAO1 mutant MIN4_RW01_2, pmrB(F124S); assay: microbe, parasite or virus in culture; type: cell-based; details: Pseudomonas aeruginosa, PAO1, read-out: MIC, Sensititre
# Experimental: as §1
# P. aeruginosa 125A = assay: MIC, CLSI broth microdilution in BD Phoenix AST Broth; type: cell-based, Pseudomonas aeruginosa; details: Pseudomonas aeruginosa; strain 125A; agent alone; 37°C, 18–22 h; three biological replicates
# Experimental: (§2) MIC for RW01 was also tested.
# (§3) FIC of RW01 (FICRW01)=MIC of RW01 in combination/MIC of RW01 alone,FIC of antibiotic (FICATB)=MIC of ATB in combination/MIC of ATB alone,FICI=FICRW01 +FICATB.
# (§4) FICI was interpreted as follows: synergistic effect if FICI is ≤0.5; additive effect if 0.5 < FICI ≤ 1.0; indifferent effect if 1.0 < FICI ≤ 2.0; and finally, antagonistic effect if FICI is >2.0. The average FICI considering the antibiotic MIC (no growth in any of the replicates) at different concentrations of RW01 was calculated ([28]).
# P. aeruginosa 125B = assay: as above; type: cell-based, Pseudomonas aeruginosa; details: Pseudomonas aeruginosa; strain 125B; agent alone; 37°C, 18–22 h; three biological replicates
# Experimental: as §2, §3, §4
# P. aeruginosa 41A = assay: as above; type: cell-based, Pseudomonas aeruginosa; details: Pseudomonas aeruginosa; strain 41A; agent alone; 37°C, 18–22 h; three biological replicates
# Experimental: as §2, §3, §4
# P. aeruginosa 41B = assay: as above; type: cell-based, Pseudomonas aeruginosa; details: Pseudomonas aeruginosa; strain 41B; agent alone; 37°C, 18–22 h; three biological replicates
# Experimental: as §2, §3, §4
# P. aeruginosa PAO1 = assay: as above; type: cell-based, Pseudomonas aeruginosa; details: Pseudomonas aeruginosa, PAO1, strain PAO1; agent alone; 37°C, 18–22 h; three biological replicates; read-out: MIC
# Experimental: as §2, §3, §4
# P. aeruginosa PAOUW = assay: as above; type: cell-based, Pseudomonas aeruginosa; details: Pseudomonas aeruginosa, strain PAOUW; agent alone; 37°C, 18–22 h; three biological replicates; read-out: MIC
# Experimental: as §2, §3, §4
# P. aeruginosa PAOUW∆oprF = assay: as above; type: cell-based, Pseudomonas aeruginosa; details: Pseudomonas aeruginosa, strain PAOUWΔoprF; agent alone; 37°C, 18–22 h; three biological replicates
# Experimental: as §2, §3, §4
# P. aeruginosa PAOΔmexR = assay: as above; type: cell-based, Pseudomonas aeruginosa; details: Pseudomonas aeruginosa
# Experimental: as §2, §3, §4
# P. aeruginosa PAOΔmexZ = assay: as above; type: cell-based, Pseudomonas aeruginosa; details: Pseudomonas aeruginosa, strain PAOΔmexZ; agent alone; 37°C, 18–22 h; three biological replicates
# Experimental: as §2, §3, §4
# P. aeruginosa PAOΔoprM = assay: as above; type: cell-based, Pseudomonas aeruginosa; details: Pseudomonas aeruginosa
# Experimental: as §2, §3, §4
Compound,"MIC (P. aeruginosa PAO1, WT) [mg/L]",MIC [1] [mg/L],MIC [2] [mg/L],MIC [3] [mg/L],MIC [4] [mg/L],MIC [5] [mg/L],MIC [6] [mg/L],MIC [7] [mg/L],MIC [8] [mg/L],MIC [9] [mg/L],MIC [10] [mg/L],MIC [11] [mg/L],MIC [12] [mg/L],MIC [13] [mg/L],MIC [14] [mg/L],MIC [15] [mg/L],MIC [16] [mg/L],MIC [17] [mg/L],MIC [18] [mg/L],MIC [19] [mg/L],other results
"CC1(C)S[C@@H]2[C@H](NC(=O)[C@H](C(=O)O)c3ccsc3)C(=O)N2[C@H]1C(=O)O [TIC, ticarcillin]",16,64,64,16,64,16,128,16,64,32,16,32,128,128,16,16,64,64,64,64,MIC [20]: 16 mg/L; MIC [21]: 16 mg/L
"C[C@@H](O)[C@H]1C(=O)N2C(C(=O)O)=C(SCCN=CN)C[C@H]12 [Imipenem, imipenem]",1 to 2,2 to 4,2,1,2,2,1,2,4,2,8,2,2,2 to 4,16,4,2,2,2,2,MIC (P. aeruginosa 125A): 2 mg/L; MIC (P. aeruginosa 125B): 2 mg/L; MIC (P. aeruginosa 41A): 2 mg/L; MIC (P. aeruginosa 41B): 16 mg/L; MIC (P. aeruginosa PAO1): 2 mg/L; MIC (P. aeruginosa PAOUW): 8 mg/L; MIC (P. aeruginosa PAOUW∆oprF): 2 mg/L; MIC (P. aeruginosa PAOΔmexR): 0.5 mg/L; MIC (P. aeruginosa PAOΔmexZ): 2 mg/L; MIC (P. aeruginosa PAOΔoprM): 2 mg/L; MIC [20]: 2 mg/L; MIC [21]: 2 mg/L
